Experimental data taken from ChEMBL document CHEMBL1152373, “Synthesis and antimultidrug resistance evaluation of icariin and its derivatives” (Bioorg Med Chem Lett, 2009).
The source made the active and inactive calls. The calls are words filed in the database; no cut-off is given here.

Key:
[1] = Cytotoxicity against human MCF7/ADR cells after 72 hrs by MTT assay; assay type: functional, cell-based; settings: NCI/ADR-RES
NCI/ADR-RES [2] = test: Inhibition of MDR1 gene expression in human MCF7/ADR cells after 48 hrs by RT-PCR analysis; assay type: functional, cell-based
NCI/ADR-RES [3] = test: Reversal of P-gp-mediated multidrug resistance in human MCF7/ADR cells assessed as modulation factor, ratio of adriamycin IC50 without drug to adriamycin IC50 with drug at 10 uM after 72 hrs by MTT assay; assay type: cell-based
NCI/ADR-RES [4] = test: Reversal of P-gp-mediated multidrug resistance in human MCF7/ADR cells assessed as modulation factor, ratio of adriamycin IC50 without drug to adriamycin IC50 with drug at 25 uM after 72 hrs by MTT assay; assay type: cell-based
NCI/ADR-RES [5] = test: Reversal of P-gp-mediated multidrug resistance in human MCF7/ADR cells assessed as assessed as increase in intracellular adriamycin accumulation at 5 uM incubated 2 hrs before adriamycin challenge by spectrophotometry; assay type: cell-based
NCI/ADR-RES [6] = test: Reversal of P-gp-mediated multidrug resistance in human MCF7/ADR cells assessed as modulation factor, ratio of adriamycin IC50 without drug to adriamycin IC50 with drug at 1 uM after 72 hrs by MTT assay; assay type: cell-based
MCF7 [7] = test: Reversal of P-gp-mediated multidrug resistance in human MCF7 cells assessed as assessed as increase in intracellular adriamycin accumulation at 5 uM incubated 2 hrs before adriamycin challenge by spectrophotometry; assay type: cell-based
NCI/ADR-RES [8] = test: Reversal of P-gp-mediated multidrug resistance in human MCF7/ADR cells assessed as enhancement in cytotoxicity of adriamycin; assay type: cell-based
P-gp (ABCB1) [9] = target: T1, P-gp (ABCB1) (Homo sapiens, UniProt P08183); test: Inhibition of P-gp in human Caco-2 cells assessed as decrease in efflux permeability from basolateral to apical side at 50 uM after 120 mins; assay type: cell-based
T1 sequence (P08183 whole entry): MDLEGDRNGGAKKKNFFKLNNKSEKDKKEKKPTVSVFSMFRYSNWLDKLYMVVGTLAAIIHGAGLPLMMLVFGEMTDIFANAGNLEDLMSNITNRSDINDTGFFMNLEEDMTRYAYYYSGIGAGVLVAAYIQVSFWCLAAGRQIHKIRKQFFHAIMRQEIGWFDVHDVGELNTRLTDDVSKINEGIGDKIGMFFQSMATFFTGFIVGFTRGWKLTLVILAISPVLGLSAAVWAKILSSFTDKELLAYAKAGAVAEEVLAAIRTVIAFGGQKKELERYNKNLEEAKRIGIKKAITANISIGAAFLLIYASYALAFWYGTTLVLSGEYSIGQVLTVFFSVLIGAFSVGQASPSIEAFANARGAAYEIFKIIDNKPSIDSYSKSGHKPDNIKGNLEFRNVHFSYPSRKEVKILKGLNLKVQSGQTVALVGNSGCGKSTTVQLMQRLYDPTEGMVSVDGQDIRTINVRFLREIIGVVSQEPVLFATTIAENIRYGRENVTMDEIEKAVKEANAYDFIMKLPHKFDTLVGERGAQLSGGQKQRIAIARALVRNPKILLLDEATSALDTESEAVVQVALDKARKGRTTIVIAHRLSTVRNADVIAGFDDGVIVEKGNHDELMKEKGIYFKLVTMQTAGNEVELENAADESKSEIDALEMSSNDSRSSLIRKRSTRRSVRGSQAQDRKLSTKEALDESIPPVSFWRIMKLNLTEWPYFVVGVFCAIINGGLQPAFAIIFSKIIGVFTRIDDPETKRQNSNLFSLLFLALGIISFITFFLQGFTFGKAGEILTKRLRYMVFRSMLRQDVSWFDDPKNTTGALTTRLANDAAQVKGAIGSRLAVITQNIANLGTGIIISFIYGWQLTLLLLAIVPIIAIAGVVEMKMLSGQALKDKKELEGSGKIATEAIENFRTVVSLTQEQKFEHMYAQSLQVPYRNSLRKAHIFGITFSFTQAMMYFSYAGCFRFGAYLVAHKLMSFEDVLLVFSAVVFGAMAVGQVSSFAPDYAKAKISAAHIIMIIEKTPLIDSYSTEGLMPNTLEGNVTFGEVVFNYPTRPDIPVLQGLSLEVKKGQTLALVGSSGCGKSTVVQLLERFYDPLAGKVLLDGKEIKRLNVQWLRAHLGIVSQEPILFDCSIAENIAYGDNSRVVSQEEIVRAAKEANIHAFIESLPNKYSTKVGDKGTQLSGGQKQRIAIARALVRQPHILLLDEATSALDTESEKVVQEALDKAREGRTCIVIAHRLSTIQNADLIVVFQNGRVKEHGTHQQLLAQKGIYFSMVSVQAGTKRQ

P-gp (ABCB1) [10] = target: T1, P-gp (ABCB1); test: Inhibition of P-gp in human Caco-2 cells assessed as increase in influx permeability from apical to basolateral side at 50 uM after 120 mins; assay type: cell-based
MCF7 [11] = test: Ratio of IC50 for human MCF7/ADR cells to IC50 for human MCF7 cells; assay type: functional

inhibition at 2 h, 50 µM (P-gp (ABCB1) [9]) [%]	inhibition at 2 h, 50 µM (P-gp (ABCB1) [10]) [%]	SMILES	IC50 [1] [µM]	Activity (NCI/ADR-RES [2])	Ratio IC50 (NCI/ADR-RES [3])	Ratio IC50 (NCI/ADR-RES [4])	Activity (NCI/ADR-RES [5])	Ratio IC50 (NCI/ADR-RES [6])	Activity (MCF7 [7])	Activity (NCI/ADR-RES [8])	fold change (FC) (NCI/ADR-RES [8])	Ratio IC50 (MCF7 [11])
		COc1ccc(-c2oc3c4c(cc(O)c3c(=O)c2O)OC(C)(C)CC4)cc1S(=O)(=O)O	> 100	Active	2.15	2.56	Active	1.33	inactive			
		COc1ccc(-c2oc3c4c(cc(O)c3c(=O)c2OS(N)(=O)=O)OC(C)(C)CC4)cc1	92.1	Active	1.69	3.65	Active	1.42	inactive			
		COc1ccc(-c2oc3c(CCC(C)(C)OC)c(O)cc(O)c3c(=O)c2O)cc1	20.9		2.41		Active	1.26	inactive	Dose-dependent effect		
39.6	39.6	COc1ccc(-c2oc3c4c(cc(O)c3c(=O)c2O)OC(C)(C)CC4)cc1	> 100	Active	4.35	10.1	Active	2.33	inactive		10	
		COc1ccc(-c2oc3c(CC=C(C)C)c(OS(C)(=O)=O)cc(O)c3c(=O)c2OS(C)(=O)=O)cc1	80.8		1.36	1.46	Active	1.11	inactive			
		COc1ccc(-c2oc3c(CC=C(C)C)c(O[C@@H]4O[C@H](CO)[C@@H](O)[C@H](O)[C@H]4O)cc(O)c3c(=O)c2O[C@@H]2O[C@@H](C)[C@H](O)[C@@H](O)[C@H]2O)cc1 [ICARIIN]	> 100		1.59	2.03	Active	1.41	inactive	Dose-dependent effect		
		COc1cccc2c1C(=O)c1c(O)c3c(c(O)c1C2=O)C[C@@](O)(C(=O)CO)C[C@@H]3O[C@H]1C[C@H](N)[C@H](O)[C@H](C)O1 [DOXORUBICIN]	25.3									47.7
		COc1ccc(-c2oc3c(CC=C(C)C)c(O)cc(O)c3c(=O)c2O[C@@H]2O[C@@H](C)[C@H](O)[C@@H](O)[C@H]2O)cc1	> 100		1.39	1.61	Active	1.28	inactive			
		COc1ccc(-c2oc3c4c(cc(O)c3c(=O)c2OS(C)(=O)=O)OC(C)(C)CC4)cc1	55	Active	2.34	2.71	Active	1.89	inactive			
41.9	41.9	COc1ccc(-c2oc3c(CC=C(C)C)c(O)cc(O)c3c(=O)c2O)cc1 [ICARITIN]	52.1	Active	4.96	12.9	Active	2.48	inactive		10	
		COc1ccc(-c2oc3c(CC=C(C)C)c(O[C@@H]4O[C@H](CO)[C@@H](O)[C@H](O)[C@H]4O)cc(O)c3c(=O)c2O)cc1	60.8		1.49	1.62	Active	1.41	inactive			
